Results: patent US4777172A, “Pyrimidylalkylthio benzimidale compounds, pharmaceutical compositions and use” (Smith Kline & French Laboratories Limited, priority 1986, dated 1988)
Structures can show the parent of a compound that is named as a salt.

Experiments:
H^+ -K^+ -ATPase = assay: K^+ Stimulated ATPase Activity; format: biochemical, pig
Description: A. K^+ Stimulated ATPase Activity
The effects of a single high concentration (1 mM) of a compound of structure (I) on H^+ -K^+ -ATPase were determined at pH 6.1 and pH 7.4. Preferred compounds of structure (I) were also tested over a range of concentrations to determine IC50 values at pH 6.1 and 7.4.
(i) Preparation of Lyophilised Gastric Vesicles (H^+ -K^+ -ATPase)
H^+ -K^+ -ATPase was prepared from the lyophilised gastric vesicles of pig fundic mucosa after the method of Saccomani et. al. (Biochem and Biophys. Acta., 465, 311, 1977).
(ii) K^+ Stimulated ATPase Activity
Compounds of structure (I) were pre-incubated with H^+ -K^+ -ATPase preparation 30 μg protein/ml from (i) in 10 mM Pipes/Tris buffer pH 6.1 and pH 7.4.
After 30 minutes at 37° the pre-incubation was diluted 5-fold with assay buffer to start the ATPase reaction. The conditions in the assay are 100 mM Pipes/Tris, 2 mM MgCl2, 10 mM KCl, 5 μg/ml nigericin, 2 mM Na2 ATP, pH 7.0. After an incubation at 37° for 15 minutes the inorganic phosphate released was determined by the method of Yoda & Hokin (Biochem. Biophys. Res. Com. 40, 880, 1970).
The effect of the same concentration of compound of structure (I) (pre-incubated with H^+ -K^+ -ATPase preparation at pH 7.4 as described above) on the recovery of 100 nmole of inorganic phosphate was also determined. […]

[1] = tested on: rabbit intact gastric glands (dibutyryl cAMP stimulated); assay: Aminopyrine (AP) accumulation in intact gastric glands; format: cell-based, New Zealand white rabbits; details: Oryctolagus cuniculus, 0.5 h; 300 μM dibutyryl cAMP, 30 minutes at 37° C, pH 7.4; amount required to inhibit stimulated aminopyrine accumulation by 50%
Description: B. Aminopyrine (AP) accumulation in intact gastric glands
The effect of a single concentration (100 μm) of a compound of structure (I) on dibutyryl cAMP stimulated AP […] in rabbit intact gastric glands was determined. Preferred compounds of structure (I) were tested over a range of concentrations to determine the IC50 value.
(i) Preparation of intact gastric glands.
Intact gastric glands were prepared from New Zealand white rabbits by the method of Berghindh et al. (Acta. Physio. Scand. 96, 150, 1976). Gastric mucosal scrapings were digested at 37° C. for 45-60 min. with Collagenase (100 U, Type 1, Sigma), and glands harvested by coarse filtration and sedimentation.
Test compound was incubated with glands and 300 μM dibutyryl cAMP for 30 minutes at 37° C. Incubating medium contained 132.5 mM NaCl, 5.4 mM KCl, 1.0 mM NaH2 PO4, 5.0 mM Na2 HPO4, 1.2 mM MgSO4, 1.0 mM CaCl2, 11.1 mM glucose, 2.0 mg/ml rabbit albumin, 10 μg/ml phenol red, approximately 0.3 uM[^14 C] […] (110 mCi/mmole), pH 7.4.
After incubation, glands were centrifuged and the supernatant removed. The glands were dried, weighed and dissolved in NaOH. The distribution of radioactivity between the supernatant and glands is then used to calculate the AP ratio after the method of Berglindh et al. (Acta. Physiol. Scand. 97, 401, 1976).
The IC50 value is the amount of compound required to inhibit the stimulated accumulation of aminopyrine by 50%.

[2] = tested on: histamine stimulated gastric acid secretion; assay: Rat: Lumen perfused stomach (histamine stimulated gastric acid secretion); format: in vivo
Description: C. Rat: Lumen perfused stomach (histamine stimulated gastric acid secretion).
Using a modification of the procedure described by Ghosh and Schild (Br. J. Pharmacology, 13, 54, 1958), ED50 values after either intraduodenal (i.d) or intravenous (i.v) administration were obtained as follows: […]

[3] = i.d. (intraduodenal) administration

SMILES	IC50 [1] [nM]	other results
COc1ccc2[nH]c([S+]([O-])Cc3nccc(N4CCCCC4)n3)nc2c1 (stereo not shown) [Example 3, 5-methoxy-2-(4-piperidino-2-pyrimidinylmethylsulphinyl)-(1H)-benzimidazoleCalcium Salt 2.5H2 O]	16000	inhibition of potassium stimulated H^+ -K^+ ATPase (H^+ -K^+ -ATPase; pre-incubation pH 6.1, 30 minutes at 37°): found to inhibit; inhibition of potassium stimulated H^+ -K^+ ATPase (H^+ -K^+ -ATPase; pre-incubation pH 7.4, 30 minutes at 37°): found to inhibit; ED50 ([2]; iv, i.v. administration): 1.4 µmol/kg
COc1ccc2[nH]c([S+]([O-])Cc3ncnc(N4CCOCC4)c3C)nc2c1 (stereo not shown) [Example 15, 5-methoxy-2-(5-methyl-6-morpholino-4-pyrimidinylmethylsulphinyl)-(1H)-benzimidazole]	5000	
COc1ccc2[nH]c([S+]([O-])Cc3cc(N4CCCCC4)ncn3)nc2c1 (stereo not shown) [Example 19, 5-methoxy-2-(6-piperidino-4-pyrimidinylmethylsulphinyl)-(1H)-benzimidazole]	2640	
COc1ccc2[nH]c([S+]([O-])Cc3ncnc(N4CCCC4)c3C)nc2c1 (stereo not shown) [Example 13, 5-methoxy-2-(5-methyl-6-pyrrolidino-4-pyrimidinylmethylsulphinyl)-(1H)-benzimidazole]	320	ED50 [2, 3]: 2.8 µmol/kg
COc1ccc2[nH]c([S+]([O-])Cc3nccc(N(C)C)n3)nc2c1 (stereo not shown) [Example 9, 5-methoxy-2-(4-dimethylamino-2-pyrimidinylmethylsulphinyl)-(1H)-benzimidazole]	1200	ED50 [2, 3]: 2.4 µmol/kg
COc1ccc2[nH]c([S+]([O-])Cc3ncnc(N4CCCCC4)c3C)nc2c1 (stereo not shown) [Example 11, 5-methoxy-2-(5-methyl-6-piperidino-4-pyrimidinylmethylsulphinyl)-(1H)-benzimidazole]	6150	
COc1ccc2[nH]c([S+]([O-])Cc3nccc(N4CCCC4)n3)nc2c1 (stereo not shown) [Example 7, 5-methoxy-2-(4-pyrrolidino-2-pyrimidinylmethylsulphinyl)-(1H)-benzimidazole]	2440	
COc1ccc2[nH]c([S+]([O-])Cc3ncnc(N(C)C)c3C)nc2c1 (stereo not shown) [Example 17, 5-methoxy-2-(5-methyl-6-dimethylamino-4-pyrimidinylmethylsulphinyl)-(1H)-benzimidazole]	3330	
